# Source: patent publication US7871982B2, “Lincomycin derivatives and antimicrobial agents comprising the same as active ingredient” (Meiji Seika Kaisha, Ltd., priority 2005, dated 2011)
# Key:
# Assay in all cases: Antimicrobial activity, MIC against pneumococci (agar dilution)
# Assay type in all cases: cell-based
# S. pneumoniae PRC-206 = conditions: inoculum 10^6 CFU/ml; for MIC: Streptococcus pneumoniae, PRC206, sensitivity disk agar-N+5% horse blood, read-out: minimal inhibitory concentration (MIC); for minimal inhibitory concentration (MIC): sensitivity disk agar-N+5% horse blood
# Method: (§1) For representative compounds among lincomycin derivatives according to the present invention, the minimal inhibitory concentration (MIC, μg/ml) against various pneumococci was measured according to the method described in CHEMOTHERAPY, vol. 16, No. 1, 99, 1968. Sensitivity disk agar-N+5% horse blood was used as the medium for the measurement. The amount of bacteria inoculated was 10^6 CFU/ml.
# S. pneumoniae DPI Type[…] = conditions: for MIC: Streptococcus pneumoniae, read-out: minimal inhibitory concentration (MIC); for minimal inhibitory concentration (MIC): S. pneumoniae DPI Type[…], sensitivity disk agar-N+5% horse blood, inoculum 10^6 CFU/ml
# Method: as §1
# S. pneumoniae TH-96 = conditions: inoculum 10^6 CFU/ml; for MIC: Streptococcus pneumoniae, TH96, sensitivity disk agar-N+5% horse blood, read-out: minimal inhibitory concentration (MIC); for minimal inhibitory concentration (MIC): sensitivity disk agar-N+5% horse blood
# Method: as §1
# S. pneumoniae 1820 = conditions: sensitivity disk agar-N+5% horse blood, inoculum 10^6 CFU/ml; for MIC: Streptococcus pneumoniae, read-out: minimal inhibitory concentration (MIC)
# Method: as §1
# S. pneumoniae IP692 = conditions: sensitivity disk agar-N+5% horse blood, inoculum 10^6 CFU/ml; for MIC: Streptococcus pneumoniae, read-out: minimal inhibitory concentration (MIC)
# Method: as §1
# S. pneumoniae PRC-53 = conditions: inoculum 10^6 CFU/ml; for MIC: Streptococcus pneumoniae, PRC53, sensitivity disk agar-N+5% horse blood, read-out: minimal inhibitory concentration (MIC); for minimal inhibitory concentration (MIC): sensitivity disk agar-N+5% horse blood
# Method: as §1
# S. pneumoniae 225 = conditions: sensitivity disk agar-N+5% horse blood, inoculum 10^6 CFU/ml; for MIC: Streptococcus pneumoniae, read-out: minimal inhibitory concentration (MIC)
# Method: as §1
# S. pneumoniae 1913 = conditions: sensitivity disk agar-N+5% horse blood, inoculum 10^6 CFU/ml; for MIC: Streptococcus pneumoniae, read-out: minimal inhibitory concentration (MIC)
# Method: as §1
# S. pneumoniae TH-662 = conditions: inoculum 10^6 CFU/ml; for MIC: Streptococcus pneumoniae, TH662, sensitivity disk agar-N+5% horse blood, read-out: minimal inhibitory concentration (MIC); for minimal inhibitory concentration (MIC): sensitivity disk agar-N+5% horse blood
# Method: as §1
# S. pneumoniae PRC0-91 = conditions: inoculum 10^6 CFU/ml; for minimal inhibitory concentration (MIC): sensitivity disk agar-N+5% horse blood
# Method: as §1
Compound,MIC (S. pneumoniae PRC-206),MIC (S. pneumoniae DPI Type[…]),MIC (S. pneumoniae TH-96),MIC (S. pneumoniae 1820),MIC (S. pneumoniae IP692),MIC (S. pneumoniae PRC-53),MIC (S. pneumoniae 225),MIC (S. pneumoniae 1913),MIC (S. pneumoniae TH-662),minimal inhibitory concentration (MIC) (S. pneumoniae PRC0-91),minimal inhibitory concentration (MIC) (S. pneumoniae PRC-206),minimal inhibitory concentration (MIC) (S. pneumoniae DPI Type[…]),minimal inhibitory concentration (MIC) (S. pneumoniae TH-96),minimal inhibitory concentration (MIC) (S. pneumoniae 1820),minimal inhibitory concentration (MIC) (S. pneumoniae IP692),minimal inhibitory concentration (MIC) (S. pneumoniae PRC-53),minimal inhibitory concentration (MIC) (S. pneumoniae 225),minimal inhibitory concentration (MIC) (S. pneumoniae 1913),minimal inhibitory concentration (MIC) (S. pneumoniae TH-662),"MIC (S. pneumoniae PRC0-91; Streptococcus pneumoniae, PRC091, sensitivity disk agar-N+5% horse blood, read-out: minimal inhibitory concentration (MIC))"
"CCC[C@@H]1C[C@@H](C(=O)N[C@@H](C2OC(SC)C(O)C(O)C2O)[C@H](C)SCc2ccc(C(=O)N3CCCCC3)cc2)N(C)C1 (stereo partly drawn) [Compound 235, 7-Deoxy-7-epi-7-(4-(piperidino-carbonyl)benzylthio)lincomycin]",4 µg/mL,0.015 µg/mL,0.03 µg/mL,8 µg/mL,0.015 µg/mL,0.03 µg/mL,32 µg/mL,0.03 µg/mL,1 µg/mL,,,,,,,,,,,
"CCCC1CC(C(=O)NC(C(C)Sc2nnc(NC(=O)COC)s2)C2OC(SC)C(O)C(O)C2O)N(C)C1 (stereo not drawn) [Compound 195, 7-Deoxy-7-epi-7-(5-(2-methoxyacetamido)-1,3,4-thiadiazol-2-ylthio)lincomycin]",,,,,,,,,,8 µg/mL,64 µg/mL,0.06 µg/mL,0.06 µg/mL,16 µg/mL,0.03 µg/mL,0.06 µg/mL,64 µg/mL,0.13 µg/mL,8 µg/mL,
"CCC[C@H]1CN[C@H](C(=O)N[C@@H]([C@H]2O[C@H](SC)[C@H](O)[C@@H](O)[C@H]2O)[C@H](C)Sc2nnc(-c3sccc3N)s2)C1 [Compound 304, 7-(5-(3-Aminothiophen-2-yl)-1,3,4-thiadiazol-2-ylthio)-1′-demethyl-7-deoxy-7-epilincomycin]",,,,,,,,,,2 µg/mL,4 µg/mL,0.13 µg/mL,0.13 µg/mL,4 µg/mL,0.13 µg/mL,0.13 µg/mL,16 µg/mL,0.13 µg/mL,2 µg/mL,
"CCC[C@@H]1C[C@@H](C(=O)N[C@@H]([C@H]2O[C@H](SC)[C@H](O)[C@@H](O)[C@H]2O)[C@H](C)Sc2ccc(C(=O)N3CCCC3)cc2)N(C)C1 [Compound 228, 7-Deoxy-7-epi-7-(4-(pyrrolidino-carbonyl)phenylthio)lincomycin]",,,,,,,,,,2 µg/mL,4 µg/mL,0.13 µg/mL,,4 µg/mL,0.06 µg/mL,0.06 µg/mL,16 µg/mL,0.13 µg/mL,2 µg/mL,
"CCCC1CC(C(=O)NC(C(C)Sc2ccc(N(C)C(=O)COC)cc2)C2OC(SC)C(O)C(O)C2O)N(C)C1 (stereo not drawn) [Compound 170, 7-Deoxy-7-epi-7-(4-(methoxy-N-methylacetamido)phenylthio)-lincomycin]",,,,,,,,,,8 µg/mL,16 µg/mL,0.13 µg/mL,0.13 µg/mL,8 µg/mL,0.13 µg/mL,0.13 µg/mL,128 µg/mL,0.13 µg/mL,8 µg/mL,
"CC[C@@H]1CCN(C)[C@H](C(=O)N[C@@H]([C@H]2O[C@H](SC)[C@H](O)[C@@H](O)[C@H]2O)[C@H](C)Sc2nnc(-c3ccc(F)cc3[N+](=O)[O-])s2)C1 [Compound 396, Methyl 7-deoxy-7-epi-7-(5-(4-fluoro-2-nitrophenyl)-1,3,4-thiadiazol-2-ylthio)-6-N-((2S,4R)-1-N-methyl-4-ethyl)pipecoloyl-1-thio-α-lincosamide]",,,,,,,,,,4 µg/mL,64 µg/mL,0.015 µg/mL,0.015 µg/mL,16 µg/mL,0.008 µg/mL,0.015 µg/mL,>128 µg/mL,0.008 µg/mL,8 µg/mL,
"CCC[C@@H]1C[C@@H](C(=O)N[C@H](C2OC(SC)C(O)C(O)C2O)[C@@H](C)Sc2ccc(-c3cccnc3[N+](=O)[O-])cc2)N(C)C1 (stereo partly drawn) [Compound 446, 7-Deoxy-7-epi-7-(4-(2-nitropyridin-3-yl)phenylthio)-lincomycin]",8 µg/mL,0.03 µg/mL,0.015 µg/mL,4 µg/mL,0.03 µg/mL,0.015 µg/mL,64 µg/mL,0.03 µg/mL,2 µg/mL,,,,,,,,,,,4 µg/mL
"CCC[C@@H]1CCN[C@H](C(=O)N[C@@H]([C@H]2O[C@H](SC)[C@H](O)[C@@H](O)[C@H]2O)[C@H](C)Sc2ncc(C(=O)OCC)c(N)n2)C1 [Compound 364, Methyl 7-(4-amino-5-ethoxycarbonylpyrimidin-2-ylthio)-7-deoxy-7-epi-6-N-((2S,4R)-4-propyl)pipecoloyl-1-thio-α-lincosamide]",,,,,,,,,,,4 µg/mL,0.13 µg/mL,0.06 µg/mL,4 µg/mL,0.13 µg/mL,0.03 µg/mL,4 µg/mL,0.13 µg/mL,2 µg/mL,
"CCC[C@@H]1C[C@@H](C(=O)N[C@@H]([C@H]2O[C@H](SC)[C@H](O)[C@@H](O)[C@H]2O)[C@H](C)Sc2ccc(NC(=O)CC)cn2)N(C)C1 [Compound 191, 7-Deoxy-7-epi-7-(5-(propionamido)pyridin-2-ylthio)-lincomycin]",,,,,,,,,,2 µg/mL,8 µg/mL,0.015 µg/mL,0.03 µg/mL,4 µg/mL,0.015 µg/mL,0.03 µg/mL,32 µg/mL,0.015 µg/mL,,
